Assay results from PubChem BioAssay AID330 (DTP/NCI, 2004).
Inconclusive results and toxic doses are left out. The calls were made as follows: active = survival T/C of 150% or more; inactive = T/C below 125% in these data.

System: P388 leukemia ip, CD2F1 mice, survival T/C
Test: NCI In Vivo Anticancer Drug Screen. Data for tumor model P388 Leukemia (intraperitoneal) in CD2F1 (CDF1) mice
Settings: endpoint: median survival time, higher = longer survival
Procedure, shortened: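 Mice carrying the transplanted tumor received test compound or vehicle. Survival was recorded in each group, and the value is the treated-group measurement divided by that of the vehicle-treated control group.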

[1] = dose: 100.0 mg/kg/injection, schedule: Q01DX009 (ip), vehicle: saline with Tween-80
[2] = dose: 200.0 mg/kg/injection, schedule: Q01DX009 (ip), vehicle: saline with Tween-80
[3] = dose: 50.0 mg/kg/injection, schedule: Q01DX009 (ip), vehicle: Klucel (hydroxypropylcellulose) (HPC)
[4] = dose: 50.0 mg/kg/injection, schedule: Q01DX009 (ip), vehicle: saline with Tween-80
[5] = dose: 60.0 mg/kg/injection, schedule: Q01DX005 (ip), vehicle: saline with Tween-80
[6] = dose: 120.0 mg/kg/injection, schedule: Q01DX005 (ip), vehicle: saline with Tween-80
[7] = dose: 240.0 mg/kg/injection, schedule: Q01DX005 (ip), vehicle: saline with Tween-80

Measured: T/C

CC1CN1c1nc(N2CC2C)nc(N2CC2C)n1 (configuration not stated)
inactive: dose: 1.56 mg/kg/injection, schedule: Q01DX009 (ip), vehicle: saline with Tween-80 94 % of control | dose: 3.13 mg/kg/injection, schedule: Q01DX009 (ip), vehicle: saline with Tween-80 98 % of control

CCCN(CCC)CC(=O)NC1CC(OC2CC(O)(C(C)=O)Cc3c(O)c4c(c(O)c32)C(=O)c2c(OC)cccc2C4=O)OC(C)C1O (configuration not stated)
inactive: dose: 0.25 mg/kg/injection, schedule: Q01DX009 (ip), vehicle: water 107 % of control | dose: 0.5 mg/kg/injection, schedule: Q01DX009 (ip), vehicle: water 101 % of control | dose: 1.0 mg/kg/injection, schedule: Q01DX009 (ip), vehicle: water 107 % of control | dose: 2.0 mg/kg/injection, schedule: Q01DX009 (ip), vehicle: water 103 % of control | dose: 4.0 mg/kg/injection, schedule: Q01DX009 (ip), vehicle: water 100 % of control | dose: 8.0 mg/kg/injection, schedule: Q01DX009 (ip), vehicle: water 107 % of control

O=C(NC1CCCCC1)N1CCCC1
inactive: dose: 50.0 mg/kg/injection, schedule: Q01DX009 (ip), vehicle: saline 99 % of control | [1] 91 % of control | dose: 100.0 mg/kg/injection, schedule: Q01DX009 (ip), vehicle: saline 95 % of control | [2] 86 % of control | dose: 200.0 mg/kg/injection, schedule: Q01DX009 (ip), vehicle: saline 102 % of control

COc1cc(I)cc(OC)c1OC
inactive: dose: 6.25 mg/kg/injection, schedule: Q01DX009 (ip), vehicle: Klucel (hydroxypropylcellulose) (HPC) 97 % of control | dose: 12.5 mg/kg/injection, schedule: Q01DX009 (ip), vehicle: Klucel (hydroxypropylcellulose) (HPC) 94 % of control | dose: 25.0 mg/kg/injection, schedule: Q01DX009 (ip), vehicle: Klucel (hydroxypropylcellulose) (HPC) 96 % of control | [3] 91 % of control

Cc1ccc(C(=O)Nc2ccccn2)cc1
inactive: [3] 100 % of control | dose: 100.0 mg/kg/injection, schedule: Q01DX009 (ip), vehicle: Klucel (hydroxypropylcellulose) (HPC) 93 % of control | dose: 200.0 mg/kg/injection, schedule: Q01DX009 (ip), vehicle: Klucel (hydroxypropylcellulose) (HPC) 100 % of control

C1=CC2C3CCC(C3)C2C1 (configuration not stated)
inactive: dose: 100.0 mg/kg/injection, schedule: Q04DX003 (ip), vehicle: saline with Tween-80 113 % of control | dose: 200.0 mg/kg/injection, schedule: Q04DX003 (ip), vehicle: saline with Tween-80 100 % of control | dose: 400.0 mg/kg/injection, schedule: Q04DX003 (ip), vehicle: saline with Tween-80 104 % of control

CC1(Br)CN(C(=S)Nc2ccccc2)C1=O (configuration not stated)
inactive: dose: 50.0 mg/kg/injection, schedule: Q01DX005 (ip), vehicle: saline with Tween-80 108 % of control | dose: 100.0 mg/kg/injection, schedule: Q01DX005 (ip), vehicle: saline with Tween-80 105 % of control | dose: 200.0 mg/kg/injection, schedule: Q01DX005 (ip), vehicle: saline with Tween-80 104 % of control

COc1ccc(NC(CCN2CCCCC2)=NC(C)(C)C)cc1
inactive: [4] 110 % of control | [1] 104 % of control | [2] 101 % of control

O=C(Nc1ccccc1)N1CCOCC1
inactive: [5] 106 % of control | [6] 103 % of control | [7] 95 % of control

N#CC(=NCCO)C1=C(O)c2ccccc2C1=O
inactive: [5] 107 % of control | [6] 97 % of control | [7] 95 % of control

O=C1CN2CCN3CC(=O)NC(=O)[C@H]3[C@H]2C(=O)N1
inactive: [5] 101 % of control | [6] 101 % of control | [7] 93 % of control

Cc1cccc(CSCc2c(CSCc3cccc(C)c3)c(CSCc3cccc(C)c3)c(CSCc3cccc(C)c3)c(CSCc3cccc(C)c3)c2CSCc2cccc(C)c2)c1
inactive: dose: 100.0 mg/kg/injection, schedule: Q01DX001 (ip), vehicle: saline with Tween-80 114 % of control | dose: 200.0 mg/kg/injection, schedule: Q01DX001 (ip), vehicle: saline with Tween-80 105 % of control | dose: 400.0 mg/kg/injection, schedule: Q01DX001 (ip), vehicle: saline with Tween-80 101 % of control

O=C1/C(=N/O)Cc2ccccc21
inactive: dose: 12.5 mg/kg/injection, schedule: Q04DX003 (ip), vehicle: saline with Tween-80 100 % of control | dose: 25.0 mg/kg/injection, schedule: Q04DX003 (ip), vehicle: saline with Tween-80 100 % of control | dose: 50.0 mg/kg/injection, schedule: Q04DX003 (ip), vehicle: saline with Tween-80 100 % of control

C/C=C/c1cc2c(c(=O)o1)C(=O)[C@@H](O)[C@H](C)O2
inactive: dose: 12.5 mg/kg/injection, schedule: Q01DX009 (ip), vehicle: saline with Tween-80 101 % of control | dose: 25.0 mg/kg/injection, schedule: Q01DX009 (ip), vehicle: saline with Tween-80 101 % of control | dose: 44.0 mg/kg/injection, schedule: Q01DX009 (ip), vehicle: saline with Tween-80 112 % of control | [4] 110 % of control | dose: 66.0 mg/kg/injection, schedule: Q01DX009 (ip), vehicle: saline with Tween-80 121 % of control

C1=C[N-]c2c3c(ccc2=C1)=CC=C[N-]3.C1=C[N-]c2c3c(ccc2=C1)=CC=C[N-]3.[Cl][Ru][Cl]
inactive: dose: 1.56 mg/kg/injection, schedule: Q01DX005 (ip), vehicle: saline with Tween-80 88 % of control | dose: 3.13 mg/kg/injection, schedule: Q01DX005 (ip), vehicle: saline with Tween-80 111 % of control | dose: 6.25 mg/kg/injection, schedule: Q01DX005 (ip), vehicle: saline with Tween-80 104 % of control
